Source: patent publication US4851440A, “Leukotriene antagonists, processes for the preparation thereof, the use thereof for the treatment of diseases, and precursors” (Hoechst Aktiengesellschaft, priority 1987, dated 1989)
≈ marks a conversion by molar mass, not a printed value.

How the values were obtained:
Format in all cases: cell-based
LTE4 = assay: Inhibition of the LTE4-induced contraction of strips of guinea pig lung; conditions: Cavia porcellus; LTE4 3 ng/ml of bath liquid; lung strips pretreated with indomethacin (10^-6 g/ml); substance added at maximum contraction plateau; 37° C.; read-out: IC50 versus LTE4
Description: (§1) The leukotriene-antagonistic action of the substances of the general formula I according to the invention is determined by the inhibition of the leukotriene-induced contraction of strips of guinea pig lung. The method which is used is a modification of the tests described by Foreman, Shelly and Weber (Arch. Int. Pharmacodyn. 278, 193-206 (1985)).
(§2) Guinea pigs are sacrificed by an overdose of ether. The thoracic cavity is opened; the lungs are removed and cut into strips 5 cm long, which are stored in physiological saline. For the measurement, the strips of lung are placed in an organ bath filled with Ringer's solution which is equilibrated at 37° C. and through which carbogen (O2 /CO2 95:5 parts by volume) is passed. The strips are left to equilibrate under a load of 0.5-1 g for 30-60 minutes. The strips of lung are pretreated with indomethacin (10^-6 g/ml of bath liquid) before the test starts.
(§3) The contraction is induced by adding LTC4, LTD4 or LTE4 in a concentration of 3 ng/ml of bath liquid. The test substances are administered therapeutically into the bath, after the maximum contraction plateau has been reached, in several concentrations and at time intervals of 10 minutes. 6-12 strips of lung are used for each concentration of the test substances.
(§4) The concentrations of the test substances at which the contraction is reduced by 50% (IC50) are indicated in μg/ml.

LTD4 = assay: Inhibition of the LTD4-induced contraction of strips of guinea pig lung; conditions: Cavia porcellus; LTD4 3 ng/ml of bath liquid; lung strips pretreated with indomethacin (10^-6 g/ml); substance added at maximum contraction plateau; 37° C.; read-out: IC50 versus LTD4
Description: as §1, §2, §3, §4

LTC4 = assay: Inhibition of the LTC4-induced contraction of strips of guinea pig lung; conditions: Cavia porcellus; LTC4 3 ng/ml of bath liquid; lung strips pretreated with indomethacin (10^-6 g/ml); substance added at maximum contraction plateau; 37° C.; read-out: IC50 versus LTC4
Description: as §1, §2, §3, §4

Compound | IC50 (LTE4) | IC50 (LTD4) | IC50 (LTC4)
COC(=O)COC[C@@H](O)[C@@H](Sc1cccc(OC)c1)c1ccccc1 (racemic) [Compound A, Methyl (5RS,6SR)-5-hydroxy-6-(3-methoxyphenylthio)-6-phenyl-3-oxahexanoate] | 1 µg/mL (≈ 2.76 µM) | 0.3 µg/mL (≈ 0.828 µM) | 0.6 µg/mL (≈ 1.66 µM)
COC(=O)CSC[C@@H](O)[C@@H](Sc1cccc(OC)c1)c1ccccc1 (racemic) [Compound B, Methyl (5RS,6SR)-5-hydroxy-6-(3-methoxyphenylthio)-6-phenyl-3-thiahexanoate] | 1 µg/mL (≈ 2.64 µM) | 0.6 µg/mL (≈ 1.59 µM) | 0.6 to 1 µg/mL (≈ 1.59 to 2.64 µM)
COC(=O)CSC[C@H](O)[C@H](Sc1cccc(OC)c1)c1ccccc1 [Compound C, Methyl (5 S,6 R)(-)-5-hydroxy-6-(3-methoxyphenylthio)-6-phenyl-3-thiahexanoate] | 0.3 to 0.6 µg/mL (≈ 0.793 to 1.59 µM) | 0.1 µg/mL (≈ 0.264 µM) | 0.3 to 0.6 µg/mL (≈ 0.793 to 1.59 µM)

More lines, now with the values ahead:

IC50 (LTE4) | IC50 (LTD4) | IC50 (LTC4) | Compound
> 10 µg/mL | 0.5 µg/mL (≈ 1.68 µM) | > 10 µg/mL | CCCS[C@@H](c1ccccc1)[C@H](O)COCC(=O)OC (racemic) [Compound D, Methyl (5RS,6SR)-5-hydroxy-6-phenyl-3-oxa-7-thiadecanoate]
6 to 10 µg/mL (≈ 19.1 to 31.8 µM) | 0.6 to 1 µg/mL (≈ 1.91 to 3.18 µM) | 6 µg/mL (≈ 19.1 µM) | CCCS[C@@H](c1ccccc1)[C@H](O)CSCC(=O)OC (racemic) [Compound E, Methyl (5RS,6SR)-5-hydroxy-6-phenyl-3,7-dithiadecanoate]
